Experimental data as given in patent US7279494B2, “Antimicrobial [3.1.0] bicyclohexylphenyl-oxazolidinone derivatives and analogues” (Pfizer Inc., priority 2003, dated 2007).
In brackets after ≈: the same amount, converted by molar mass. Read-outs that look alike come from different tables or passages of the source.

Tests used:
Assay type in all cases: cell-based
S. aureus UC9213 = test: MIC by standard agar dilution, S. aureus UC9213; details: incubated overnight at 35° C.; for MIC: Staphylococcus aureus, UC9213, Mueller Hinton agar
Text: (§1) The in vitro activity of compounds of the subject invention may be assessed by standard testing procedures such as the determination of minimum inhibitory concentration (MIC) by agar dilution as described in “Approved Standard. Methods for Dilution Antimicrobial Susceptibility Tests for Bacteria that Grow Aerobically,” 3rd ed., published 1993 by the National Committee for Clinical Laboratory standards, Villanova, Pa., USA.
(§2) The in vitro MICs of test compounds may be determined by a standard agar dilution method. A stock drug solution of each analog is prepared in a preferred solvent, usually DMSO:H2O (1:3). Serial 2-fold dilutions of each sample are made using 1.0 mL aliquots of sterile distilled water. To each 1.0 mL aliquot of drug is added 9 mL of molten Mueller Hinton agar medium. The drug-supplemented agar is mixed, poured into 15×100 mm petri dishes, and allowed to solidify and dry prior to inoculation.
(§3) Vials of each of the test organisms are maintained frozen in the vapor phase of a liquid nitrogen freezer. Test cultures are grown overnight at 35° C. on the medium appropriate for the organism. Colonies are harvested with a sterile swab, and cell suspensions are prepared in Trypticase Soy broth (TSB) to equal the turbidity of a 0.5 McFarland standard. A 1:20 dilution of each suspension is made in TSB. The plates containing the drug supplemented agar are inoculated with a 0.001 mL drop of the cell suspension using a Steers replicator, yielding approximately 10^4 to 10^5 cells per spot. The plates are incubated overnight at 35° C.
(§4) Following incubation the Minimum Inhibitory Concentration (MIC μg/mL), the lowest concentration of drug that inhibits visible growth of the organism, is read and recorded.

H. influenzae 30063 = test: MIC by standard agar dilution, H. influenzae 30063; details: for H. influenzae 30063 MIC: agar dilution
Text: as §1, §2, §3, §4

S. pneumoniae UC9912 = test: MIC by standard agar dilution, S. pneumoniae UC9912; details: incubated overnight at 35° C.; for MIC: Streptococcus pneumoniae, UC9912, Mueller Hinton agar
Text: as §1, §2, §3, §4

[1] = Haemophilus influenzae, 30063, agar dilution, Mueller Hinton agar, incubated overnight at 35° C., read-out: H. influenzae 30063 MIC
[2] = Mueller Hinton agar, incubated overnight at 35° C.

| SMILES | MIC (S. aureus UC9213) [µg/mL] | MIC (H. influenzae 30063; [1]) [µg/mL] | MIC (S. pneumoniae UC9912) [µg/mL] | H. influenzae 30063 MIC (H. influenzae 30063; [2]) [µg/mL] | S. aureus UC9213 MIC (S. aureus UC9213; Mueller Hinton agar) [µg/mL] | S. pneumoniae UC9912 MIC (S. pneumoniae UC9912; Mueller Hinton agar) [µg/mL] | MIC (H. influenzae 30063; Haemophilus influenzae, 30063, read-out: H. influenzae 30063 MIC) [µg/mL] |
| --- | --- | --- | --- | --- | --- | --- | --- |
| CCC(=O)NC[C@H]1CN(c2ccc([C@H]3[C@@H]4CN(C(=O)NC)C[C@@H]43)c(F)c2)C(=O)O1 [Example 24, exo-(1R,5S)-6-(4-{(5S)-5-[(propanoylamino)methyl]-2-oxo-1,3-oxazolidin-3-yl]-2-fluorophenyl)-3-azabicyclo[3.1.0]hexane-3-methylcarboxamide] | 4 (≈ 9.89 µM) | 16 (≈ 39.6 µM) | 2 (≈ 4.95 µM) |  |  |  |  |
| CC(=O)NC[C@H]1CN(c2ccc([C@H]3[C@@H]4CN(C(=O)[C@@H](O)CO)C[C@@H]43)c(F)c2)C(=O)O1 [Example 9, N-[((5S)-3-{3-fluoro-4-[exo-(1R,5S)-3-((2S)-2,3-dihydroxypropanoyl)-3-azabicyclo[3.1.0]hex-6-yl]phenyl}-2-oxo-1,3-oxazolidin-5-yl)methyl]acetamide] | 8 (≈ 19 µM) | 8 (≈ 19 µM) | 1 (≈ 2.37 µM) |  |  |  |  |
| CC(=O)NC[C@H]1CN(c2ccc([C@H]3[C@@H]4CN(C(=O)C5(O)CC5)C[C@@H]43)c(F)c2)C(=O)O1 [Example 31, N-[((5 S)-3-{3-fluoro-4-[exo-(1R,5S)-3-(1-hydroxy-cyclopropanecarbonyl)-3-azabicyclo[3.1.0]hex-6-yl]phenyl}-2-oxo-1,3-oxazolidin-5-yl)methyl]acetamide] | 2 (≈ 4.79 µM) | 16 (≈ 38.3 µM) | 2 (≈ 4.79 µM) |  |  |  |  |
| CC(F)(F)C(=O)NC[C@H]1CN(c2ccc([C@H]3[C@@H]4C[S+]([O-])C[C@@H]43)c(F)c2)C(=O)O1 (stereo partly drawn) [Example 54, 2,2-difluoro-N-[((5S)-3-{3-fluoro-4-[exo-(1R,5S)-3-oxido-3-thiabicyclo[3.1.0]-6-yl]phenyl}-2-oxo-1,3-oxazolidin-5-yl)methyl]propanamide] | 8 (≈ 19.2 µM) | 4 (≈ 9.61 µM) | 4 (≈ 9.61 µM) |  |  |  |  |
| CC(=O)NC[C@H]1CN(c2ccc([C@H]3[C@@H]4CN(C(=O)C5CC5)C[C@@H]43)c(F)c2)C(=O)O1 [Example 30, N-[((5S)-3-{3-fluoro-4-[exo-(1R,5S)-3-cyclopropanecarbonyl-3-azabicyclo[3.1.0]hex-6-yl]phenyl}-2-oxo-1,3-oxazolidin-5-yl)methyl]acetamide] | 4 (≈ 9.96 µM) | 16 (≈ 39.9 µM) | 4 (≈ 9.96 µM) |  |  |  |  |
| CC(=O)NC[C@H]1CN(c2ccc([C@H]3[C@@H]4CN(C(=O)[C@@H](O)C(F)(F)F)C[C@@H]43)c(F)c2)C(=O)O1 [Example 33, N-[((5S)-3-{3-fluoro-4-[exo-(1R,5S)-3-(3,3,3-trifluoro-2-(S)-hydroxypropanoyl)-3-azabicyclo[3.1.0]hex-6-yl]phenyl}-2-oxo-1,3-oxazolidin-5-yl)methyl]acetamide] | 2 (≈ 4.35 µM) | 16 (≈ 34.8 µM) | 2 (≈ 4.35 µM) |  |  |  |  |
| CN/C(=C\[N+](=O)[O-])N1C[C@@H]2[C@H](C1)[C@H]2c1ccc(N2C[C@H](CNC(C)=O)OC2=O)cc1F [Example 75, N-[((5S)-3-{3-fluoro-4-[exo-(1R,5S)-3-((E)-1-{methylamino}-2-nitrovinyl)-3-azabicyclo[3.1.0]hex-6-yl]phenyl}-2-oxo-1,3-oxazolidin-5-yl)methyl]acetamide] | 2 (≈ 4.61 µM) | 4 (≈ 9.23 µM) | 2 (≈ 4.61 µM) |  |  |  |  |
| NC(=O)[C@H]1CN(c2ccc([C@H]3[C@@H]4CS(=O)(=O)C[C@@H]43)c(F)c2)C(=O)O1 [Example 20, (5R)-3-{4-[exo-(1R,5S)-3,3-dioxido-3-thiabicyclo[3.1.0]hex-6-yl]-3-fluorophenyl}-2-oxo-1,3-oxazolidine-5-carboxamide] | 2 (≈ 5.64 µM) | > 64 | 2 (≈ 5.64 µM) | >64 |  |  |  |
| CCNC(=O)N1C[C@@H]2[C@H](C1)[C@H]2c1ccc(N2C[C@H](CNC(=O)CC)OC2=O)cc1F [Example 25, exo-(1R,5S)-6-(4-{(5S)-5-[(propanoylamino)methyl]-2-oxo-1,3-oxazolidin-3-yl}-2-fluorophenyl)-3-azabicyclo[3.1.0]hexane-3-ethylcarboxamide] | 8 (≈ 19.1 µM) | 32 (≈ 76.5 µM) | 4 (≈ 9.56 µM) |  |  |  |  |
| NC(=O)N1C[C@@H]2[C@H](C1)[C@H]2c1ccc(N2C[C@H](CNC(=S)C(F)F)OC2=O)cc1F [Example 11, exo-(1R,5S)-6-[4-((5S)-5-{[(2,2-difluoroethanethioyl)amino]methyl}-2-oxo-1,3-oxazolidin-3-yl)-2-fluorophenyl]-3-azabicyclo[3.1.0]hexane-3-carboxamide] | 0.5 (≈ 1.17 µM) | 2 (≈ 4.67 µM) | 0.25 (≈ 0.584 µM) |  |  |  |  |
| CC(=O)NC[C@H]1CN(c2cc(F)c([C@H]3[C@@H]4C[S+]([O-])C[C@@H]43)c(F)c2)C(=O)O1 (stereo partly drawn) [Example 12, N-[((5S)-3-{3,5-difluoro-4-[exo-(1R,5S)-3-oxido-3-thiabicyclo[3.1.0]hex-6-yl]phenyl}-2-oxo-1,3-oxazolidin-5-yl)methyl]acetamide] |  |  |  | 4 | 1 | 0.5 |  |
| O=C(NC[C@H]1CN(c2cc(F)c([C@H]3[C@@H]4C[S+]([O-])C[C@@H]43)c(F)c2)C(=O)O1)C1CC1 (stereo partly drawn) [Example 61, N-[((5S)-3-{3,5-difluoro-4-[exo-(1R,5S)-3-oxido-3-thiabicyclo[3.1.0]hex-6-yl]phenyl}-2-oxo-1,3-oxazolidin-5-yl)methyl]cyclopropanecarboxamide] | 2 (≈ 4.87 µM) | 8 (≈ 19.5 µM) | 1 (≈ 2.44 µM) |  |  |  |  |
| CC(=O)NC[C@H]1CN(c2ccc([C@H]3[C@@H]4CN(C(=O)C(F)F)C[C@@H]43)c(F)c2)C(=O)O1 [Example 34, N-[((5S)-3-{3-fluoro-4-[exo-(1R,5S)-3-difluoroacetyl-3-azabicyclo[3.1.0]hex-6-yl]phenyl}-2-oxo-1,3-oxazolidin-5-yl)methyl]acetamide] | 2 (≈ 4.86 µM) |  | 1 (≈ 2.43 µM) |  |  |  | 8 (≈ 19.4 µM) |

More lines, main results first:

| MIC (S. aureus UC9213) [µg/mL] | MIC (H. influenzae 30063; [1]) [µg/mL] | MIC (S. pneumoniae UC9912) [µg/mL] | SMILES | H. influenzae 30063 MIC (H. influenzae 30063; [2]) [µg/mL] | S. aureus UC9213 MIC (S. aureus UC9213; Mueller Hinton agar) [µg/mL] | S. pneumoniae UC9912 MIC (S. pneumoniae UC9912; Mueller Hinton agar) [µg/mL] | MIC (H. influenzae 30063; Haemophilus influenzae, 30063, read-out: H. influenzae 30063 MIC) [µg/mL] |
| --- | --- | --- | --- | --- | --- | --- | --- |
| 0.5 (≈ 1.17 µM) | 4 (≈ 9.36 µM) | 1 (≈ 2.34 µM) | CC(=O)NC[C@H]1CN(c2ccc([C@H]3[C@@H]4CN(C(=O)c5c[nH]cn5)C[C@@H]43)c(F)c2)C(=O)O1 [Example 39, N-[((5S)-3-{3-fluoro-4-[exo-(1R,5S)-3-(1H-imidazole-4-carbonyl)-3-azabicyclo[3.1.0]hex-6-yl]phenyl}-2-oxo-1,3-oxazolidin-5-yl)methyl]acetamide] |  |  |  |  |
| 2 (≈ 5.11 µM) | 4 (≈ 10.2 µM) | 0.25 (≈ 0.639 µM) | CC(=O)NC[C@H]1CN(c2ccc([C@H]3[C@@H]4CN(C(=O)CO)C[C@@H]43)c(F)c2)C(=O)O1 [Example 5, N-[((5S)-3-{3-fluoro-4-[exo-(1R,5S)-3-glycoloyl-3-azabicyclo[3.1.0]hex-6-yl]phenyl}-2-oxo-1,3-oxazolidin-5-yl)methyl]acetamide] |  |  |  |  |
| 4 (≈ 9.72 µM) | 32 (≈ 77.8 µM) | 1 (≈ 2.43 µM) | CC(=O)NC[C@H]1CN(c2ccc([C@H]3[C@@H]4CN(c5ncccn5)C[C@@H]43)c(F)c2)C(=O)O1 [Example 43, N-[((5S)-3-{3-fluoro-4-[exo-(1R,5S)-3-(pyrimidin-2-yl)-3-azabicyclo[3.1.0]hex-6-yl]phenyl}-2-oxo-1,3-oxazolidin-5-yl)methyl]acetamide] |  |  |  |  |
| 4 (≈ 9.87 µM) | 16 (≈ 39.5 µM) | 2 (≈ 4.93 µM) | CC(=O)NC[C@H]1CN(c2ccc([C@H]3[C@@H]4CN(C(=O)[C@H](C)O)C[C@@H]43)c(F)c2)C(=O)O1 [Example 29, N-[((5S)-3-{3-fluoro-4-[exo-(1R, 5S)-3-(2-(S)-hydroxypropanoyl)-3-azabicyclo[3.1.0]hex-6-yl]phenyl}-2-oxo-1,3-oxazolidin-5-yl)methyl]acetamide] |  |  |  |  |
| 1 (≈ 2.33 µM) | 8 (≈ 18.7 µM) | 0.5 (≈ 1.17 µM) | CC(=O)NC[C@H]1CN(c2ccc([C@H]3[C@@H]4CN(C(=O)c5ccno5)C[C@@H]43)c(F)c2)C(=O)O1 [Example 37, N-[((5S)-3-{3-fluoro-4-[exo-(1R,5S)-3-(isoxazole-5-carbonyl)-3-azabicyclo[3.1.0]hex-6-yl]phenyl}-2-oxo-1,3-oxazolidin-5-yl)methyl]acetamide] |  |  |  |  |
| 2 (≈ 4.68 µM) | 8 (≈ 18.7 µM) | 2 (≈ 4.68 µM) | CC(=O)NC[C@H]1CN(c2ccc([C@H]3[C@@H]4CN(C(=O)c5cc[nH]n5)C[C@@H]43)c(F)c2)C(=O)O1 [Example 38, N-[((5S)-3-{3-fluoro-4-[exo-(1R,5S)-3-(1H-pyrazole-3-carbonyl)-3-azabicyclo[3.1.0]hex-6-yl]phenyl}-2-oxo-1,3-oxazolidin-5-yl)methyl]acetamide] |  |  |  |  |
| 4 (≈ 10.6 µM) | 8 (≈ 21.2 µM) | 1 (≈ 2.65 µM) | CC(=O)NC[C@H]1CN(c2ccc([C@H]3[C@@H]4CN(CCO)C[C@@H]43)c(F)c2)C(=O)O1 [Example 47, N-[((5S)-3-{3-fluoro-4-[exo-(1R,5S)-3-(2-hydroxyethyl)-3-azabicyclo[3.1.0]hex-6-yl]phenyl}-2-oxo-1,3-oxazolidin-5-yl)methyl]acetamide] |  |  |  |  |
